For data set [1] the following is noted: rats; in comparison to tenofovir alafenamide hemifumarate; CN 105237571 B; cited from earlier work.
For data set [2] the following is noted: CDER review, NDA 207561; cited from earlier work.
The conditions of data set [3]: Wood apparatus, bath 37° C., 900 mL distilled water, 50 rpm, compressed 200-400 mg samples. As to the method:
Intrinsic dissolution rate (IDR) measurements were performed using a Wood apparatus (Pharma Test PT-DT8 instrument) having a bath temperature of 37° C. Samples were prepared by compressing 200-400 mg samples at 1.5 metric tons for 1 minute. A dissolution medium consisting of 900 mL distilled water, and rotation speed of 50 rpm, was used for each experiment.

The conditions of data set [4]: reported; cited from earlier work.

Counter-ions that a name gives are not always drawn.

tenofovir alafenamide hemisuccinate: in data set [1], the “absorption (AUC)” value is recorded as “higher” and the “maximum plasma concentration (Cmax)” value is “higher”.
On to tenofovir alafenamide hemifumarate, for which, in data set [2], the “Biopharmaceutics Classification System (BCS) class” value was “Class III” and the solubility result is given as “high”.
On to `CC(C)OC(=O)[C@H](C)N[P@](=O)(CO[C@H](C)Cn1cnc2c(N)ncnc21)Oc1ccccc1` [Tenofovir alafenamide fumarate (1:1), Tenofovir alafenamide fumarate], for which the “Intrinsic Dissolution Rate” value in data set [3] came out at 0.87 mg min^−1 cm^−2.
On to `CC(C)OC(=O)[C@H](C)N[P@](=O)(CO[C@H](C)Cn1cnc2c(N)ncnc21)Oc1ccccc1` [tenofovir alafenamide, L-alanine, N—[(S)-[[(1 R)-2-(6-amino-9H-purin-9-yl)-1-methylethoxy]methyl]phenoxyphosphinyl]-, 1-methylethyl ester], for which the bioavailability entry in data set [4] is on record as “low”.
Take “Tenofovir alafenamide succinate [Tenofovir alafenamide succinate (1:1)]”: the “Intrinsic Dissolution Rate” value in data set [3] was 0.67 mg min^−1 cm^−2.

The values above are taken from US11667656B2, “Crystalline forms of Tenofovir alafenamide” (Apotex Inc., priority 2021, dated 2023).
